Results from publication PMC11475408, “All‐Inorganic Polyoxometalates Act as Superchaotropic Membrane Carriers” (Advanced Materials (Deerfield Beach, Fla.), 2023).
Like-named read-outs stand apart in the source and are kept apart here.

How the values were obtained:
[1] = Hydrolysis/stability of POMs in buffer by NMR; settings: for Hydrolysis/stability pH 5.5: 10 mM Mes, 107 mM NaCl, long-term (24 h and longer)
Method: First, their long‐term (24 h and longer) fate in aqueous solution (slightly acidic and neutral) was investigated by applying the active NMR nuclei in their composition (Table S9 and Figures S24–S37, see the Supporting Information for details).
NMR-spectroscopic characterization of identity and stability
NMR spectroscopy for all POMs tested was performed under experimental conditions.

cationic oligopeptides = assay: ITC, POM with the peptides (general statement); type: binding
Method: To affect membrane transport, any carrier needs to display an affinity toward the cargo as well as toward the lipid bilayer. Accordingly, the interaction between [PVW11]^4‒ and [SiMoW11]^4‒ and the peptides was analyzed by isothermal titration calorimetry (ITC, Figure 2c,d; and Figures S10 and S11, Supporting Information). […] (enthalpically driven, interaction with the peptide backbones, Table S6, Supporting Information) and Coulombic interactions (interaction with arginine and lysine side chains). The strong but reversible intermolecular interactions between the low‐charged POMs and the cationic oligopeptides present an interesting finding, which was measured for both, oligo‐ and polypeptides. Previous ITC studies have focused only on the binding of proteins with highly charged and therefore weakly chaotropic POMs (n < −6, Table S3, Supporting Information), where electrostatic interactions were implied as main driving force.^[ [65], [66], [67], [68], [69], [70], [71], [72], [73] ^]
All experiments were performed with a VP‐ITC MicroCalorimeter from MicroCal, Int,. at atmospheric pressure and 298.15 K. Solutions were degassed and thermostatic prior to the titration experiments in a ThermoVac accessory. […] Dilution heats were determined by titration of the POM into buffer and subtracted from the reaction heat. […]

[2] = CF transport assay in EYPC⊃CF vesicles (carrier activity); type: biochemical; design: key to Carrier activity: ‐ – ‐: No detectable activity at pH 5.5 and 7.4; settings: for heptaLys Ymax / EC50 / HeptaArg Y max / PolyArg Y max / Protamine Y max / HeptaArg Ymax, pH 5.5 / PolyArg Ymax, pH 5.5 / Protamine Ymax, pH 5.5: CF assay; for heptaLys Ymax: 13 µM phospholipids; for heptaLys Ymax / HeptaArg Y max / PolyArg Y max / Protamine Y max / HeptaArg Ymax, pH 5.5: ±2% error (SD); for HeptaArg Y max: 13 µM lipid, 10 mM Hepes or Tris, 10 min, Hill fit, triplicates; for heptaLys E / PolyArg E (activation efficiency) / Protamine E (activation efficiency) / HeptaArg E (activation efficiency) / HeptaArg E, pH 5.5 / PolyArg E, pH 5.5 / Protamine E, pH 5.5: f = 20.6; for heptaLys E / PolyArg E (activation efficiency) / Protamine E (activation efficiency) / HeptaArg E (activation efficiency) / HeptaArg E, pH 5.5: 10% error; for HeptaArg E (activation efficiency): E = Ymax(pEC50/f); for Transport activity (in words): EYPC⊃CF vesicles, neutral pH, carrier then cargo; for Onset for transport activity (carrier concentration): vesicles, heptaArg dose-response curves (Figure 2b)
Text: The capability of POMs to act as membrane carriers was explored first in large unilamellar vesicles (LUVs) loaded with carboxyfluorescein (CF).^[ [54], [55] ^] We selected […] representative cationic peptides, heptaarginine (heptaArg), heptalysine (heptaLys), protamine, and polyarginine (polyArg), as test cargos. Inside the LUVs, the CF dye was encapsulated at self‐quenching concentrations. With a suitable carrier, heptaArg can be taken up into the vesicles, bind with entrapped CF, and shuttle back to the exterior, diluting the previously quenched CF, and thereby restoring its fluorescence (Figure 1c). In the time‐resolved fluorescence experiments (Figure 2a), to test whether a particular POM acts as molecular carrier, the CF emission was continuously monitored during the addition of the inorganic carrier (t = 60 s) and after injection of the impermeable selected cargo (t = 120 s). Toward the end of the experiment (t = 600 s), the surfactant Triton X‐100 was added to release all the entrapped CF and allow normalization of the intensity data.
A thin lipid film was prepared by evaporating a lipid solution of EYPC (egg yolk phosphatidylcholine, 25 mg) in CHCl3 (1 mL) with a stream of nitrogen and then dried in vacuo overnight. The dry film was rehydrated with 1 mL buffer (50 mM CF, 10 mM Hepes, pH 7.4 or 50 mM CF, 10 mM Tris, pH 7.4) for 30 min at room temperature, subjected to freeze–thaw cycles (7 times) and extrusions (15 times) through a polycarbonate membrane (pore size 100 nm). Extravesicular components were removed by size exclusion chromatography (NAP‐25 column Sephadex G‐25 DNA grade) with 10 mM Hepes, 107 mM NaCl, pH 7.4, or 10 mM Hepes, 107 mM NaCl, pH 7.4. Phospholipid concentration was calculated by the Stewart assay.^[ [81] ^]
Acidic vesicles were prepared analogously but the rehydration and elution buffer were 50 mM CF, 10 mM Mes, pH 5.5 and 10 mM Mes, 107 mM NaCl, pH 5.5. respectively.
Vesicles stock solutions (5–10 µL) were diluted with the corresponding buffer in a disposable plastic cuvette and gently stirred (total volume 2000 µL, final lipid concentration 13 µM). Carboxyfluorescein fluorescence was monitored at λ em = 517 nm (λ ex = 492 nm) as a function of time after addition of POMs at 60 s, analyte at 120 s and Triton X‐100 (24 µL 1.2% wt/vol) at 600 s to lyse the vesicles, for calibration. Fluorescence intensities were normalized to fractional emission as (1) It=It−I0/I∞−I0 where I 0 = I t before POM addition and […] after lysis. For Hill analysis, I t before lysis was defined as transport activity, Y, and plotted against POM concentration, c, and fitted to the Hill Equation (2), to afford the activity in absence of POM, Y 0, the maximal activity, Y max, the concentration needed to achieve 50% of maximal activity, EC 50, and the Hill coefficient, n (2) Y=Y0+Ymax−Y0/1+EC50/c^n
In the transport measurements, where different carriers (POMs) are tested with the same cargo, the activator efficiency (E) is determined by their capacity to transport the impermeable cargo to the intravesicular region and is characterized by Y max, its maximal activity, and EC 50, the effective activator concentration. An ideal carrier reaches high Y max at low EC 50. To count both factors, the activator efficiency is defined as (3) E=YmaxpEC50/f were pEC 50 is the negative logarithm of the EC 50, and f a scaling factor, which was set to 20.6 to calibrate the highest (previously known) activation efficiency, E, as 10.^[ [55] ^]

[3] = 3 mM POM, 10 mM Mes pH 5.5, 31P NMR integration
[4] = 3 mM POM, 10 mM Tris-HCl pH 7.5, 31P NMR integration
[5] = EYPC (zwitterionic), heptaLys cargo
[6] = EYPC (zwitterionic), heptaLys cargo, 5% error (SD), read-out: heptaLys EC50
[7] = EYPC LUVs, 10 µM heptaArg, 107 mM NaCl, pH 7.4
[8] = EYPC LUVs, 0.1 µM polyArg, pH 7.4, 5% error (SD), read-out: PolyArg EC 50
[9] = EYPC LUVs, 0.1 µM polyArg, pH 7.4
[10] = EYPC LUVs, 1 µM protamine, pH 7.4, 5% error (SD), read-out: Protamine EC 50
[11] = EYPC LUVs, 1 µM protamine, pH 7.4
[12] = EYPC LUVs, 10 µM heptaArg, pH 7.4, carrier concentration for 50% of Ymax, 5% error (SD), read-out: HeptaArg EC 50
[13] = EYPC vesicles, 10 µM heptaArg, 10 mM Mes, 107 mM NaCl, pH 5.5
[14] = EYPC vesicles, heptaArg cargo, 10 mM Mes, 107 mM NaCl, pH 5.5, 5% error (SD), read-out: HeptaArg EC50, pH 5.5
[15] = EYPC vesicles, polyArg cargo, 10 mM Mes, 107 mM NaCl, pH 5.5
[16] = EYPC vesicles, polyArg cargo, pH 5.5, read-out: PolyArg EC50, pH 5.5
[17] = EYPC vesicles, protamine cargo, 10 mM Mes, 107 mM NaCl, pH 5.5
[18] = EYPC vesicles, protamine cargo, pH 5.5, read-out: Protamine EC50, pH 5.5
[19] = EYPC LUVs, 10 µM heptaArg, pH 7.4
[20] = EYPC vesicles, protamine, pH 5.5

Row | Substance | % monolacunary [PVWVI11O39]7‒ formed, Mes pH 5.5 after 1 day [1, 3] [%] | % parent anion, Mes pH 5.5 after 1 day [1, 3] [%] | Hydrolysis/stability pH 5.5 ([1]; NMR) | Supramolecular interaction with the peptides (order of magnitude) (cationic oligopeptides) | heptaLys Ymax [2, 5] [%] | EC50 [2, 6] [µM] | HeptaArg Y max [2, 7] [%] | EC50 [2, 8] [µM] | PolyArg Y max [2, 9] [%] | EC50 [2, 10] [µM] | Protamine Y max [2, 11] [%] | EC50 [2, 12] [µM] | HeptaArg Ymax, pH 5.5 [2, 13] [%] | EC50 [2, 14] [µM] | PolyArg Ymax, pH 5.5 [2, 15] [%] | EC50 [2, 16] [µM] | Protamine Ymax, pH 5.5 [2, 17] [%] | EC50 [2, 18] [µM] | heptaLys E [2, 5] | Transport activity (in words) [2] | also measured
1 | K4[α‐P^VV^VW^VI 11O40]·4H2O [[PVW11]^4‒] | 1 | 99 | Stable | ~10^7 M ^−1 | 62 | 38 | 84 | 12 | 88 | 41 | 88 | 49 | 79 | 28 | 91 | 5 | 79 | 19 | 4.3 | triggered the desired increase in fluorescence characteristic for cargo transport | % monolacunary [PVWVI11O39]7‒ formed, Mes pH 5.5 after 5 days [1, 3]: 1%; % parent anion, Mes pH 5.5 after 5 days [1, 3]: 99%; % parent (active) anion, Mes pH 5.5 freshly prepared ([1]; 3 mM POM, 10 mM Mes pH 5.5, 31P NMR signal integration, appr. 3 h after dissolution): 99%; % parent anion, Tris-HCl pH 7.5 after 1 day [1, 4]: 71%; % parent anion, Tris-HCl pH 7.5 after 5 days [1, 4]: 68%; PolyArg E (activation efficiency) [2, 9]: 8.2; Protamine E (activation efficiency) [2, 11]: 5.9; HeptaArg E (activation efficiency) [2, 19]: 5.3; HeptaArg E, pH 5.5 ([2]; EYPC vesicles, pH 5.5): 5.9; PolyArg E, pH 5.5 ([2]; EYPC vesicles, pH 5.5): 10.1; Protamine E, pH 5.5 [2, 20]: 6.6; Onset for transport activity (carrier concentration) [2]: around 1 µM
2 | K4[α‐Si^IVMo^VIW^VI 11O40]·24H2O [[SiMoW11]^4‒] |  |  | Stable | ~10^7 M ^−1 | 54 | 22 | 66 | 13 | 94 | 19 | 72 | 17 | 66 | 9 | 86 | 5 | 80 | 14 | 4.4 | triggered the desired increase in fluorescence characteristic for cargo transport | Solution stability in Mes pH 5.5 (183W NMR) ([1]; 10 mM POM, 33 mM Mes pH 5.5 (final pH 5), only signals of intact anion, acquisition 60 h): solution stability for up to 60 h; % parent anion, Tris-HCl pH 7.5 (183W NMR) ([1]; 10 mM POM, 33 mM Tris pH 7.5 (final pH 6.9), 183W NMR signal intensities, acquisition 60 h): 45%; Hydrolysis at pH 7.5 (fraction hydrolysed) ([1]; neutral buffer pH 7.5, high concentration, NMR, after 24 h): 45%; PolyArg E (activation efficiency) [2, 9]: 8.6; Protamine E (activation efficiency) [2, 11]: 6.0; HeptaArg E (activation efficiency) [2, 19]: 5.7; HeptaArg E, pH 5.5 ([2]; EYPC vesicles, pH 5.5): 6.6; PolyArg E, pH 5.5 ([2]; EYPC vesicles, pH 5.5): 9.7; Protamine E, pH 5.5 [2, 20]: 7.3; Onset for transport activity (carrier concentration) [2]: around 1 µM
3 | Na3[α‐P^VW^VI 12O40]·nH2O [[PW12]^3‒] | 61 | 5 | to [P^VW^VI 11O39]^7‒ |  |  |  |  |  |  |  |  |  |  |  |  |  |  |  |  | neither an interaction with the membrane nor cargo transport | % monolacunary [PVWVI11O39]7‒ formed, Mes pH 5.5 freshly prepared [1, 3]: 61%; % parent anion, NaOAc/HOAc pH 4 after 1 day ([1]; 3 mM POM, 10 mM NaOAc/HOAc pH 4, 31P NMR integration): 28%; Carrier activity ([2]; EYPC vesicles, pH 5.5 and 7.4, cargos heptaArg, protamine, polyArg ([AlMo6]: heptaArg and protamine only)): ‐ – ‐ ^k) , ^l)
